Results on one compound are retold here after patent US20060159762A1, “Stable pharmaceutical composition comprising an active substance in the form of solid solution” (priority 2004, published 2006).

The nature of this data set: Comparative storage stability: total degradation products and related substances by HPLC. The class given is physicochemical. The settings on record: for increase of degradation products and related substances relative to the starting analysis, non-formulated active substance versus stable pharmaceutical composition (solid solution): 6 days storage on 60° C. As to the method:
Comparison of the total amount of degradation products and related substances in non-formulated active substance and in the stable pharmaceutical composition according to the present invention comprising the active substance in the form of solid solution is presented by the graph 1. The pharmaceutical composition is prepared as described in example 2. The amount of degradation products and related substances is determined by HPLC method. [drawing]
Comparison of the total amount of degradation products and related substances in non-formulated active substance and in the stable pharmaceutical composition according to the present invention comprising the active substance in the form of solid solution is presented in graph 2. The pharmaceutical composition is prepared as described in example 5. The amount of degradation products and related substances is determined by HPLC method. [drawing] [drawing]

Molecules are shown by their SMILES.

For `COc1ccc2[n-]c([S+]([O-])Cc3ncc(C)c(OC)c3C)nc2c1.COc1ccc2[n-]c([S+]([O-])Cc3ncc(C)c(OC)c3C)nc2c1.[Mg+2]` (stereo not drawn) [esomeprazole magnesium, Esomeprazole magnesium], the “increase of degradation products and related substances relative to the starting analysis, non-formulated active substance versus stable pharmaceutical composition (solid solution)” value reads like this: (composition prepared as described in example 2) “four times higher”; (composition prepared as described in example 5) > 10 times. Further, for the setting “14 days storage on 40° C., composition prepared as described in example 2”, the “increase of the amount of degradation products and related substances relative to the starting analysis, non-formulated active substance versus stable pharmaceutical composition (solid solution)” value is listed as “three times higher”.
